According to US5686486A, “4-hydroxy-benzopyran-2-ones and 4-hydroxy-cycloalkyl[b]pyran-2-ones useful to treat retroviral infections” (priority 1995, dated 1997):
Counter-ions that a name gives are not always drawn. Like-named read-outs stand apart in the source and are kept apart here.

Target: HIV-1 protease (Human immunodeficiency virus type 1 group M subtype B, UniProt P04585)
Test: biochemical
Description: The HIV protease screening assay is based on fluorescently labeled substrate which can be resolved from nonlabeled cleavage product using special beads coated with streptavidin. The substrate is biotinylated at the amino terminal arginine and fluorescently labeled with fluorescein isothiocynate (FITC) at the carboxyl terminal lysine. This assay has been employed to detect novel, nonpeptidic inhibitors of HIV-1 protease. Substrate (20 μl of 0.2 μM), sample (10 μl of desired concentration), and enzyme (10 μl of 0.1 μM) are added to a 96 well pandex plate. The assay is run in 0.1M sodium acetate buffer at pH 5.5 in the presence of 1.0M sodium chloride and 0.05% NP-40 with incubated in the dark for one hour at room temperature. Strepavidin coated polystyrene beads {40 μl of 0.1% (w/v)} are added and the plate is incubated in the dark for an additional half hour. The labeled cleavage product is separated from the unreacted substrate via filtration and is read on the Idexx screen machine. The data are analyzed by appropriate computer algorithms to ascertain percent inhibition values.

[1] = dose 1.100 uM, read-out: HIV-1 Protease % Inhib
[2] = dose 3.300 uM, read-out: HIV-1 Protease % Inhib
[3] = dose 10.000 uM, read-out: HIV-1 Protease % Inhib
[4] = dose 30.000 uM, read-out: HIV-1 Protease % Inhib
[5] = read-out: HIV-1 Protease % Inhib, dose 1.000 uM
[6] = read-out: HIV-1 Protease % Inhib, dose 10.000 uM
[7] = read-out: HIV-1 Protease % Inhib, dose 100.000 uM
[8] = read-out: HIV-1 Protease % Inhib, dose 1.100 uM
[9] = read-out: HIV-1 Protease % Inhib, dose 3.300 uM
[10] = read-out: HIV-1 Protease % Inhib, dose 30.000 uM

Row | inhibition at 1.1 µM [1] | inhibition at 3.3 µM [2] | inhibition at 10 µM [3] | inhibition at 30 µM [4] | SMILES | inhibition at 10 µM [6] | further results
1 | – | – | – | – | CCCC(c1cccc(C)c1)c1c(O)c2ccccc2oc1=O (stereo not drawn) [Example 97, Coumarin, 4-hydroxy-3-[1-(3-methylphenyl)butyl]-] | 29.9% | inhibition at 1 µM [5]: < 10%; inhibition at 100 µM [7]: 78.2%
2 | – | – | < 10% | – | O=c1oc2c(c(O)c1C(c1ccccc1)C1CC1)CCCCCCCCCC2 (stereo not drawn) [Example 114, 3-(Cyclopropylphenylmethyl)-5,6,7,8,9,10,11,12,13,14-decahydro-4-hydroxy-2H-cyclododeca[b]pyran-2-one] | – | inhibition at 1 µM (dose 1.000 uM, read-out: HIV-1 Protease % Inhib): < 10%; inhibition at 100 µM (dose 100.000 uM, read-out: HIV-1 Protease % Inhib): 14.1%
3 | – | – | – | – | CCC(c1cccc(NC(=O)C(C)N)c1)c1c(O)c2ccccc2oc1=O (stereo not drawn) [Example 61, Propanamide, 2-amino-N-[3-[1-(4-hydroxy-2-oxo-2H-1-benzopyran-3-yl)propyl]phenyl]-, mono(trifluoroacetate) (salt)] | 115% | IC50 (HIV-1 Protease IC50): 1000 nM; inhibition at 1 µM [5]: 77.8%; inhibition at 100 µM [7]: 119%
4 | – | – | – | – | CCCOc1ccc2c(O)c(C(CC)c3ccccc3)c(=O)oc2c1 (stereo not drawn) [Example 169, Coumarin, 4-hydroxy-3-(1-phenylpropyl)-7-propoxy] | 76.8% | inhibition at 1.1 µM [8]: 13.1%; inhibition at 3.3 µM [9]: 44.4%; inhibition at 30 µM [10]: 99.9%
5 | 21.5% | 58.8% | 84.8% | 107% | C=CS(=O)(=O)Nc1cccc(C(c2c(O)c3c(oc2=O)CCCCC3)C2CC2)c1 (stereo not drawn) [Example 363, N-[3-[Cyclopropyl(2,5,6,7,8,9-hexahydro-4-hydroxy-2-oxocyclohepta[b]pyran-3-yl)methyl]phenyl]-ethenesulfonamide] | – | –
6 | – | – | – | – | CC(Cc1c(O)c2ccccc2oc1=O)c1ccccc1 (stereo not drawn) [Example 5, 4-Hydroxy-3-(2-phenylpropyl)coumarin] | 55.4% | inhibition at 1 µM [5]: 15.4%; inhibition at 100 µM [7]: 95%
7 | – | 15.5% | 82.2% | 110% | N#Cc1ccc(S(=O)(=O)Nc2ccc(C(c3c(O)c4c(oc3=O)CCCCCC4)C3CC3)cc2)cc1 (stereo not drawn) [Example 472, Benzenesulfonamide, 4-cyano-N-[4-[cyclopropyl (5,6,7,8,9,10-hexahydro-4-hydroxy-2-oxo-2H-cycloocta [b]pyran-3-yl)methyl]phenyl]-] | – | –
8 | 24.4% | 53.2% | 74.5% | 86.2% | O=c1oc2c(c(O)c1C(c1cccc(NS(=O)(=O)c3c(Cl)cc(Cl)cc3Cl)c1)C1CC1)CCCCCC2 (stereo not drawn) [Example 306, 2,4,6-Trichloro-N-[3-[cyclopropyl(5,6,7,8,9,10-hexahydro-4-hydroxy-2-oxo-2H-cycloocta[b]pyran-3-yl)methyl]phenyl]-benzenesulfonamide] | – | –
9 | – | – | – | – | CCC(c1cccc(NS(=O)(=O)c2ccc(Cl)cc2)c1)c1c(O)c2c(oc1=O)CCCCCC2 (stereo not drawn) [Example 221, Benzenesulfonamide, 4-chloro-N-[3-[1-(5,6,7,8,9,10-hexahydro-4-hydroxy-2-oxo-2H-cycloocta[b]pyran-3-yl)propyl]phenyl]-] | 119% | inhibition at 0.123 µM (read-out: HIV-1 Protease % Inhib, dose 0.123 uM): 79.7%; inhibition at 0.37 µM (read-out: HIV-1 Protease % Inhib, dose 0.370 uM): 101%; inhibition at 1.1 µM [8]: 116%; inhibition at 3.3 µM [9]: 117%; inhibition at 30 µM [10]: 124%
10 | 11.5% | 47% | 77.6% | 99.7% | N#Cc1ccc(S(=O)(=O)NCc2ccc(C(c3c(O)c4c(oc3=O)CCCCCC4)C3CC3)s2)cc1 (stereo not drawn) [Example 392] | – | –

Row | SMILES | inhibition at 1.1 µM [1] | inhibition at 3.3 µM [2] | inhibition at 10 µM [3] | inhibition at 30 µM [4] | inhibition at 10 µM [6] | further results
11 | CCCCOc1ccc(S(=O)(=O)Nc2cccc(C(c3c(O)c4c(oc3=O)CCCCCC4)C3CC3)c2)cc1 (stereo not drawn) [Example 282, 4-Butoxy-N-[3-[cyclopropyl(5,6,7,8,9,10-hexahydro-4-hydroxy-2-oxo-2H-cycloocta[b]pyran-3-yl)methyl]phenyl]-benzenesulfonamide] | 10.6% | 43.2% | 65.3% | 96.3% | – | –
